Structures are written as SMILES. Activity calls are given as the source filed them. The rule behind the calls is not given here.

Series [1] is described as follows: Inhibition of His-tagged Staphylococcus aureus NADK in presence of glucose-6-phosphate dehydrogenase and NADP measured by spectrophotometry method.
Series [2] relates to Staphylococcus aureus. As to the kind of experiment: Antibacterial activity against Staphylococcus aureus S25 strain at 1 ug/ml assessed as decrease in number of colony forming units relative to control. Type of series: functional, organism-based. The settings on record: dose 1.0 µg/ml.
For another series, the system named is HeLa. The series can be described thus: Cytotoxicity against human HeLa cells at 10 uM assessed as change in cell shape and multiplication after 96 hrs. Type of series: toxicity, cell-based.
Another series concerns the target T1, NAD kinase 1 (Listeria monocytogenes serovar 1/2a (strain ATCC BAA-679 / EGD-e), UniProt Q8Y8D7).
T1 sequence (Q8Y8D7 whole entry): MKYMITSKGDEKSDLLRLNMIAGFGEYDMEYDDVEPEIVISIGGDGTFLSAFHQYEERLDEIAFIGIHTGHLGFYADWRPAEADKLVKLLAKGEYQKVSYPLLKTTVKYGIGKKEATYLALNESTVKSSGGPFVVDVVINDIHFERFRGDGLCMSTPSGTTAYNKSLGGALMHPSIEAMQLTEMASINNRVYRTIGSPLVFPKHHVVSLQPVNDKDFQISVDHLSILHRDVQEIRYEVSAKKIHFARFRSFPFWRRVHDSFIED
As to the kind of experiment: Inhibition of His-tagged Listeria monocytogenes NADK1 in presence of glucose-6-phosphate dehydrogenase and NADP measured by spectrophotometry method.

In series [3] the test system is Staphylococcus aureus. As to the kind of experiment: Antibacterial activity against Staphylococcus aureus S25 strain at 10 ug/ml assessed as decrease in number of colony forming units relative to control. It counts as functional, organism-based. The conditions noted are these: dose 10.0 µg/ml.
Series [4] concerns Staphylococcus aureus. As to the kind of experiment: Antibacterial activity against Staphylococcus aureus S25 strain at 8 ug/ml assessed as decrease in number of colony forming units relative to control. Type of series: functional, organism-based. The conditions noted are these: dose 8.0 µg/ml.

Regarding `NC[C@H]1O[C@@H](n2c(SCC(=O)NC[C@H]3O[C@@H](n4cnc5c(N)ncnc54)[C@H](O)[C@@H]3O)nc3c(N)ncnc32)[C@H](O)[C@@H]1O`, the Ki in series [1] worked out at 50 µM; at NAD kinase 1, 30 µM. The outcome in the series on Staphylococcus aureus [2] was Active. The Activity entry with HeLa was “Non-Toxic”.

Turning to `Nc1ncnc2c1ncn2[C@@H]1O[C@H](CNCC#Cc2nc3c(N)ncnc3n2[C@@H]2O[C@H](CO)[C@@H](O)[C@H]2O)[C@@H](O)[C@H]1O`, the result in the series on Staphylococcus aureus [3] was Active. Besides, the Activity entry in the series on HeLa is listed as “Non-Toxic”.

Consider `NC[C@H]1O[C@@H](n2c(Br)nc3c(N)ncnc32)[C@H](O)[C@@H]1O`, for which the IC50 on NAD kinase 1 is 300 µM.

Regarding `Nc1ncnc2c1ncn2[C@@H]1O[C@H](COCC#Cc2nc3c(N)ncnc3n2[C@@H]2O[C@H](CO)[C@@H](O)[C@H]2O)[C@@H](O)[C@H]1O`, the Ki in series [1] is 15 µM; on NAD kinase 1 it was 20 µM. Also, the outcome with Staphylococcus aureus [2] was Active. The Activity entry in the series on HeLa is given as “Non-Toxic”.

Regarding `CN[C@H](CC(C)C)C(=O)N[C@H]1C(=O)N[C@@H](CC(N)=O)C(=O)N[C@H]2C(=O)N[C@H]3C(=O)N[C@H](C(=O)N[C@H](C(=O)O)c4cc(O)cc(O)c4-c4cc3ccc4O)[C@H](O)c3ccc(c(Cl)c3)Oc3cc2cc(c3O[C@@H]2O[C@H](CO)[C@@H](O)[C@H](O)[C@H]2O[C@H]2C[C@](C)(N)[C@H](O)[C@H](C)O2)Oc2ccc(cc2Cl)[C@H]1O`, the outcome in the series with Staphylococcus aureus [4] was Active.

A word on the Ki: it is the equilibrium dissociation constant of an inhibitor or competing ligand from its target. In general, IC50 refers to the concentration needed to halve the response being measured.

For the origin of these results see ChEMBL document CHEMBL5050830, “Novel antibacterial compounds” (2013).
